The text below walks through data of EP0504335B1, “A FIBRONECTIN BINDING PEPTIDE” (priority 1990, dated 1997).

Peptide text beside a SMILES is read from it.

The test system of one assay is Human fibronectin. In kind it is binding. The following applies: for IC50: read-out: concentration eliciting a 50% inhibition of fibronectin binding.
The next assay has as its system spirochetes. The conditions noted are these: cited from earlier work.
For the next assay, the system named is Treponema palladium. The conditions noted are these: Thomas et al., 1985b; cited from earlier work.
A further assay deals with Trypanosoma cruzi. The following applies: Ouaissi et al., 1986; cited from earlier work.

For the compound `CC[C@H](C)[C@H](NC(=O)[C@H](CCC(=O)O)NC(=O)[C@@H](NC(=O)[C@H](Cc1c[nH]cn1)NC(=O)[C@H](CCCCN)NC(=O)[C@H](CC(N)=O)NC(=O)[C@@H](N)Cc1ccccc1)[C@@H](C)O)C(=O)N[C@H](C(=O)N[C@@H](CCC(=O)O)C(=O)N[C@@H](CCC(=O)O)C(=O)N[C@@H](CC(=O)O)C(=O)N[C@H](C(=O)N[C@@H](CC(N)=O)C(=O)N[C@@H](CCCCN)C(=O)N[C@@H](CC(=O)O)C(=O)N[C@@H](CCCCN)C(=O)N1CCC[C@H]1C(=O)N[C@@H](CO)C(=O)N[C@@H](Cc1ccc(O)cc1)C(=O)N[C@@H](CCC(N)=O)C(=O)N[C@@H](Cc1ccccc1)C(=O)NCC(=O)NCC(=O)N[C@@H](Cc1c[nH]cn1)C(=O)N[C@@H](CC(N)=O)C(=O)N[C@@H](CO)C(=O)N[C@H](C(=O)N[C@@H](CC(=O)O)C(=O)N[C@@H](Cc1ccccc1)C(=O)N[C@@H](CCC(=O)O)C(=O)N[C@@H](CCC(=O)O)C(=O)N[C@@H](CC(=O)O)C(=O)N[C@H](C(=O)N[C@@H](CC(C)C)C(=O)N1CCC[C@H]1C(=O)N[C@@H](CCCCN)C(=O)N[C@H](C(=O)O)C(C)C)[C@@H](C)O)C(C)C)[C@@H](C)O)[C@@H](C)CC` [Peptide D3] (H-FNKHTEIIEEDTNKDKPSYQFGGHNSVDFEEDTLPKV-OH), the “inhibitory activity (inhibition of ^125I-HFN binding to S. aureus 8325-4), in words” value with Human fibronectin was “effective inhibitors”. As for `CC(C)C[C@H](NC(=O)[C@@H](NC(=O)[C@H](CC(=O)O)NC(=O)[C@H](CCC(=O)O)NC(=O)[C@H](CCC(=O)O)NC(=O)[C@H](Cc1ccccc1)NC(=O)[C@H](CC(=O)O)NC(=O)[C@@H](NC(=O)[C@H](CO)NC(=O)[C@H](CC(N)=O)NC(=O)[C@H](Cc1c[nH]cn1)NC(=O)CNC(=O)CNC(=O)[C@H](Cc1ccccc1)NC(=O)[C@H](CCC(N)=O)NC(=O)[C@H](Cc1ccc(O)cc1)NC(=O)[C@H](CO)NC(=O)[C@@H]1CCCN1C(=O)[C@@H](N)CCCCN)C(C)C)[C@@H](C)O)C(=O)N1CCC[C@H]1C(=O)N[C@@H](CCCCN)C(=O)O` [Peptide S16-36] (H-KPSYQFGGHNSVDFEEDTLPK-OH), the IC50 at Human fibronectin was found to be 10 µM. Regarding `CC(C)[C@H](NC(=O)[C@H](CO)NC(=O)[C@H](CC(N)=O)NC(=O)[C@H](Cc1c[nH]cn1)NC(=O)CNC(=O)CNC(=O)[C@H](Cc1ccccc1)NC(=O)[C@H](CCC(N)=O)NC(=O)[C@H](Cc1ccc(O)cc1)NC(=O)[C@H](CO)NC(=O)[C@@H]1CCCN1)C(=O)N[C@@H](CC(=O)O)C(=O)N[C@@H](Cc1ccccc1)C(=O)N[C@@H](CCC(=O)O)C(=O)N[C@@H](CCC(=O)O)C(=O)N[C@@H](CC(=O)O)C(=O)N[C@H](C(=O)O)[C@@H](C)O` [Peptide S17-33] (H-PSYQFGGHNSVDFEEDT-OH), in the assay on Human fibronectin, the “inhibitory activity (inhibition of ^125I-HFN binding to S. aureus 8325-4), in words” value is listed as “dramatic recovery of activity” and the IC50 is 100 µM. For `CC(C)C[C@H](NC(=O)[C@@H](NC(=O)[C@H](CC(=O)O)NC(=O)[C@H](CCC(=O)O)NC(=O)[C@H](CCC(=O)O)NC(=O)[C@H](Cc1ccccc1)NC(=O)[C@H](CC(=O)O)NC(=O)[C@@H](NC(=O)[C@H](CO)NC(=O)[C@H](CC(N)=O)NC(=O)[C@H](Cc1c[nH]cn1)NC(=O)CNC(=O)CNC(=O)[C@H](Cc1ccccc1)NC(=O)[C@@H](N)CCC(N)=O)C(C)C)[C@@H](C)O)C(=O)N1CCC[C@H]1C(=O)N[C@@H](CCCCN)C(=O)O` [Peptide S20-36] (H-QFGGHNSVDFEEDTLPK-OH), the IC50 at Human fibronectin was 200 µM. In the case of `CC(C)C[C@H](NC(=O)[C@@H](NC(=O)[C@H](CC(=O)O)NC(=O)[C@H](CCC(=O)O)NC(=O)[C@H](CCC(=O)O)NC(=O)[C@H](Cc1ccccc1)NC(=O)[C@H](CC(=O)O)NC(=O)[C@@H](NC(=O)[C@H](CO)NC(=O)[C@H](CC(N)=O)NC(=O)[C@H](Cc1c[nH]cn1)NC(=O)CNC(=O)CNC(=O)[C@@H](N)Cc1ccccc1)C(C)C)[C@@H](C)O)C(=O)N1CCC[C@H]1C(=O)N[C@@H](CCCCN)C(=O)O` [Peptide S21-36] (H-FGGHNSVDFEEDTLPK-OH), the “fold less effective than S20-36” value with Human fibronectin was “about 10 fold”.

As to RGDS, in the assay on spirochetes, the “attachment of spirochetes to cultured human cells, in words” value is recorded as “blocked”. The “binding of fibronectin to Treponema palladium, in words” value with Treponema palladium is “prevented”. Also, the “binding of fibronectin to Trypanosoma cruzi, in words” value in the assay with Trypanosoma cruzi was “prevented”.
